US9833497B2, “Human originated EGF domain proteins and use of the same” (CHENGDU SOURCEBIO LIMITED-LIABILITY COMPANY, priority 2013, dated 2017)

Legend:
Type in all cases: cell-based
[1] = system: Proteus mirabilis; experiment: MIC against Gram-negative bacteria: Proteus mirabilis; conditions: 5×10^5 CFU/mL
Summary of the method: (§1)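 MIC, the lowest recombinant protein concentration giving no bacterial growth, found by two-fold serial dilution of human EGF-domain proteins in triplicate. Inoculum 5×10^5 CFU/mL in LB from cultures at McFarland 0.5; plates incubated at 37° C, 175 rpm shaking.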

[2] = system: Serratia marcescens; experiment: MIC against Gram-negative bacteria: Serratia marcescens; conditions: 5×10^5 CFU/mL
Summary of the method: as §1

[3] = system: E. coli DH5α; experiment: Antibacterial activity: MIC and growth curve against E. coli DH5α in 96-well plate; conditions: minimal inhibitory concentration against E. coli DH5α; 96-well plate, 5×10^5 CFU/mL, 37° C., judged after 8 h
Summary of the method: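 MIC taken as lowest protein level with no bacterial growth, tracked by A600 every 30 min during 37 °C, 175 rpm culture. Two-fold protein series 50-12.5 μg/mL final, triplicate wells, against 5×10^5 CFU/mL of LB-washed mid-log cells.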

[4] = system: E. coli BL21; experiment: MIC against Gram-negative bacteria: E. coli BL21; conditions: 5×10^5 CFU/mL
Summary of the method: as §1

[5] = system: Pseudomonas aeruginosa; experiment: MIC against Gram-negative bacteria: Pseudomonas aeruginosa; conditions: 5×10^5 CFU/mL
Summary of the method: as §1

[6] = system: Klebsiella pneumonia; experiment: MIC against Gram-negative bacteria: Klebsiella pneumonia; conditions: 5×10^5 CFU/mL
Summary of the method: as §1

[7] = system: Citrobacter diversus; experiment: MIC against Gram-negative bacteria: Citrobacter diversus; conditions: 5×10^5 CFU/mL
Summary of the method: as §1

[8] = system: Enterobacter cloacae; experiment: MIC against Gram-negative bacteria: Enterobacter cloacae; conditions: 5×10^5 CFU/mL
Summary of the method: as §1

[9] = system: Aeromonas hydrophila; experiment: MIC against Gram-negative bacteria: Aeromonas hydrophila; conditions: 5×10^5 CFU/mL
Summary of the method: as §1

[10] = system: Moraxella catarrhalis; experiment: MIC against Gram-negative bacteria: Moraxella catarrhalis; conditions: 5×10^5 CFU/mL
Summary of the method: as §1

[11] = system: Proteus vulgaris; experiment: MIC against Gram-negative bacteria: Proteus vulgaris; conditions: 5×10^5 CFU/mL
Summary of the method: as §1

[12] = 10 h cultivation at 37° C., two-fold serial dilution

Question: With “PRT463 (DVNECLQLPKACAYQCHNLQGSYRCLCPPGQTLLRDGKACT; listed as Homo sapiens)” as the substance, how does the “MIC against P. mirabilis” value ([1]; 96-well plate, 37° C., 10 h) read?
Answer: 12.5 µg/mL

Question: What about the “MIC against S. marcescens” value ([2]; 96-well plate, 37° C., 10 h) of the same substance?
Answer: 50 µg/mL

Question: And the MIC [3]?
Answer: 50 µg/mL

Question: And the “MIC against E. coli BL21” value ([4]; 96-well plate, 37° C., 10 h)?
Answer: 12.5 µg/mL

Question: And the “MIC against P. aeruginosa” value ([5]; 96-well plate, 37° C., 10 h)?
Answer: 50 µg/mL

Question: And the “MIC against K. pneumonia” value ([6]; 96-well plate, 37° C., 10 h)?
Answer: 12.5 µg/mL

Question: What about the “MIC against C. diversus” value ([7]; 96-well plate, 37° C., 10 h) of the same substance?
Answer: 50 µg/mL

Question: What about the “MIC against E. cloacae” value ([8]; 96-well plate, 37° C., 10 h) of the same substance?
Answer: 50 µg/mL

Question: What about the “MIC against A. hydrophila” value ([9]; 96-well plate, 37° C., 10 h) of the same substance?
Answer: 12.5 µg/mL

Question: What about the “MIC against M. catarrhalis” value ([10]; 96-well plate, 37° C., 10 h) of the same substance?
Answer: 12.5 µg/mL

Question: What about the “MIC against P. vulgaris” value ([11]; 96-well plate, 37° C., 10 h) of the same substance?
Answer: 12.5 µg/mL

Question: Which results are given for “PRT637 (DIDECVNNTVCDSHGFCDNTAGSFRCLCYQGFQAPQDG; listed as Homo sapiens)”?
Answer: MIC P. mirabilis ([1]; 96-well plate, 37° C., 10 h): 12.5 µg/mL; MIC S. marcescens ([2]; 96-well plate, 37° C., 10 h): 50 µg/mL; MIC [3]: 25 µg/mL; MIC E. coli BL21 ([4]; 96-well plate, 37° C., 10 h): 12.5 µg/mL; MIC P. aeruginosa ([5]; 96-well plate, 37° C., 10 h): 25 µg/mL; MIC K. pneumonia ([6]; 96-well plate, 37° C., 10 h): 50 µg/mL; MIC C. diversus ([7]; 96-well plate, 37° C., 10 h): 50 µg/mL; MIC E. cloacae ([8]; 96-well plate, 37° C., 10 h): 12.5 µg/mL; MIC A. hydrophila ([9]; 96-well plate, 37° C., 10 h): 25 µg/mL; MIC M. catarrhalis ([10]; 96-well plate, 37° C., 10 h): 25 µg/mL; MIC P. vulgaris ([11]; 96-well plate, 37° C., 10 h): 25 µg/mL

Question: With “PRT452 (DIDECTEMPFVCSQKCENVIGSYICKCAPGYLREPDGKTC; listed as Homo sapiens)” as the substance, how does the “MIC against P. mirabilis” value ([1]; 96-well plate, 37° C., 10 h) read?
Answer: 12.5 µg/mL

Question: What about the “MIC against S. marcescens” value ([2]; 96-well plate, 37° C., 10 h) of the same substance?
Answer: 50 µg/mL

Question: What about the MIC [3] of the same substance?
Answer: 12.5 µg/mL

Question: And the “MIC against E. coli BL21” value ([4]; 96-well plate, 37° C., 10 h)?
Answer: 12.5 µg/mL

Question: What about the “MIC against P. aeruginosa” value ([5]; 96-well plate, 37° C., 10 h) of the same substance?
Answer: 12.5 µg/mL

Question: What about the “MIC against K. pneumonia” value ([6]; 96-well plate, 37° C., 10 h) of the same substance?
Answer: 12.5 µg/mL

Question: And the “MIC against C. diversus” value ([7]; 96-well plate, 37° C., 10 h)?
Answer: 50 µg/mL

Question: What about the “MIC against E. cloacae” value ([8]; 96-well plate, 37° C., 10 h) of the same substance?
Answer: 50 µg/mL

Question: And the “MIC against A. hydrophila” value ([9]; 96-well plate, 37° C., 10 h)?
Answer: 12.5 µg/mL

Question: What about the “MIC against M. catarrhalis” value ([10]; 96-well plate, 37° C., 10 h) of the same substance?
Answer: 25 µg/mL

Question: What about the “MIC against P. vulgaris” value ([11]; 96-well plate, 37° C., 10 h) of the same substance?
Answer: 25 µg/mL

Question: With “PRT1059 (SDSECPLSHDGYCLHDGVCMYIEALDKYACNCVVGYIGERCQ; listed as Homo sapiens)” as the substance, how does the “MIC P. mirabilis” value [1, 12] read?
Answer: 12.5 µg/mL

Question: And the “MIC S. marcescens” value [2, 12]?
Answer: 12.5 µg/mL

Question: What about the MIC [3] of the same substance?
Answer: 50 µg/mL

Question: And the “MIC E. coli BL21” value [4, 12]?
Answer: 12.5 µg/mL

Question: And the “MIC P. aeruginosa” value [5, 12]?
Answer: 50 µg/mL

Question: What about the “MIC K. pneumonia” value [6, 12] of the same substance?
Answer: 12.5 µg/mL

Question: And the “MIC C. diversus” value [7, 12]?
Answer: 50 µg/mL

Question: And the “MIC E. cloacae” value [8, 12]?
Answer: 25 µg/mL

Question: And the “MIC A. hydrophila” value [9, 12]?
Answer: 25 µg/mL

Question: What about the “MIC M. catarrhalis” value [10, 12] of the same substance?
Answer: 12.5 µg/mL

Question: And the “MIC P. vulgaris” value [11, 12]?
Answer: 25 µg/mL

Question: For “PRT1271 (DTNECSINNGGCQQVCVNTVGSYECQCHPGYKLHWNKKDCV; listed as Homo sapiens)”, which “MIC against P. mirabilis” value ([1]; Proteus mirabilis, 96-well plate, 37° C., 10 h) is on record?
Answer: 12.5 µg/mL

Question: What about the “MIC against S. marcescens” value ([2]; Serratia marcescens, 96-well plate, 37° C., 10 h) of the same substance?
Answer: 12.5 µg/mL

Question: And the MIC [3]?
Answer: 25 µg/mL

Question: What about the “MIC against E. coli BL21” value ([4]; E. coli BL21, 96-well plate, 37° C., 10 h) of the same substance?
Answer: 50 µg/mL

Question: And the “MIC against P. aeruginosa” value ([5]; Pseudomonas aeruginosa, 96-well plate, 37° C., 10 h)?
Answer: 12.5 µg/mL

Question: What about the “MIC against K. pneumonia” value ([6]; Klebsiella pneumonia, 96-well plate, 37° C., 10 h) of the same substance?
Answer: 50 µg/mL

Question: What about the “MIC against C. diversus” value ([7]; Citrobacter diversus, 96-well plate, 37° C., 10 h) of the same substance?
Answer: 12.5 µg/mL

Question: What about the “MIC against E. cloacae” value ([8]; Enterobacter cloacae, 96-well plate, 37° C., 10 h) of the same substance?
Answer: 12.5 µg/mL

Question: What about the “MIC against A. hydrophila” value ([9]; Aeromonas hydrophila, 96-well plate, 37° C., 10 h) of the same substance?
Answer: 50 µg/mL

Question: What about the “MIC against M. catarrhalis” value ([10]; Moraxella catarrhalis, 96-well plate, 37° C., 10 h) of the same substance?
Answer: 50 µg/mL

Question: And the “MIC against P. vulgaris” value ([11]; Proteus vulgaris, 96-well plate, 37° C., 10 h)?
Answer: 50 µg/mL

Question: What does the source list for “PRT830 (CALGNGGCQHHCVQLTITRHRCQCRPGFQLQEDGRHC; listed as Homo sapiens)”?
Answer: MIC (μg/mL) P. mirabilis ([1]; P. mirabilis, 10 h cultivation at 37° C.): 25 µg/mL; MIC (μg/mL) S. marcescens ([2]; S. marcescens, 10 h cultivation at 37° C.): 12.5 µg/mL; MIC [3]: 12.5 µg/mL; MIC (μg/mL) E. coli BL21 ([4]; E. coli BL21, 10 h cultivation at 37° C.): 12.5 µg/mL; MIC (μg/mL) P. aeruginosa ([5]; P. aeruginosa, 10 h cultivation at 37° C.): 12.5 µg/mL; MIC (μg/mL) K. pneumonia ([6]; K. pneumonia, 10 h cultivation at 37° C.): 12.5 µg/mL; MIC (μg/mL) C. diversus ([7]; C. diversus, 10 h cultivation at 37° C.): 25 µg/mL; MIC (μg/mL) E. cloacae ([8]; E. cloacae, 10 h cultivation at 37° C.): 25 µg/mL; MIC (μg/mL) A. hydrophila ([9]; A. hydrophila, 10 h cultivation at 37° C.): 12.5 µg/mL; MIC (μg/mL) M. catarrhalis ([10]; M. catarrhalis, 10 h cultivation at 37° C.): 12.5 µg/mL; MIC (μg/mL) P. vulgaris ([11]; P. vulgaris, 10 h cultivation at 37° C.): 12.5 µg/mL
